Assay results taken from PMC8496750, “Identification of the organic anion transporting polypeptides responsible for the hepatic uptake of the major metabolite of epyrifenacil, S‐3100‐CA, in mice” (Pharmacology Research & Perspectives, 2021).
Like-named read-outs stand apart in the source and are kept apart here.

Test: Metabolite analysis in plasma, liver, and kidney (TLC)
Type: in vivo, Crl:CD1(ICR) mice
Settings: Crl:CD1(ICR), mouse
Source text: Precoated silica gel 60 F254 chromatoplate (20 × 20 cm, 0.25‐ or 0.5‐mm layer thickness, Merck KGaA) was used for two‐dimensional thin layer chromatography (2D‐TLC) analysis. The solvent systems were ethyl formate/formic acid (95/5, v/v) for the first dimension, and ethyl acetate/acetic acid (95/5, v/v) for the second dimension. The radioactivity on the TLC plates was detected by autoradiography using an imaging plate processed with a fluoro‐image analyzer (FLA‐9500, GE Healthcare). The identity of the metabolites was confirmed by co‐chromatography in comparison with authentic metabolite standards.
Three mice per sex at 8 weeks old were given a single oral dose of [^14C]epyrifenacil at 1 mg/kg with or without co‐administration of OATP inhibitors. […] At 2 h after administration of [^14C]epyifenacil, the animals were euthanized by whole blood collection from the abdominal aorta under anesthesia with isoflurane. The sampling time point was selected as the time around T max based on the result of the blood ^14C‐concentration study. Then, the liver and kidney were dissected out, and the amount of ^14C was measured. Aliquots of heparinized blood samples were separated into blood cells and plasma by centrifugation at 2000g for 10 min at 4°C. The total weight of the liver and kidney was determined for each animal. Two aliquots of plasma and tissue samples (approximately 0.05–0.1 g) were weighed in a glass vial, and the radioactivity was measured.
Approximately 0.3 g of liver, kidney, and plasma samples were pooled, respectively, for each dose and gender to obtain samples for analysis. Pooled liver, kidney, and plasma (ca. 1 g each) samples were homogenized with an approximately 3‐fold volume (v/w) of methanol using the mixer mill MM400 (5 min, 25 cycles/second, Retsch GmbH) and centrifuged (10 000g, 5 min, 4°C) to separate the supernatants from the residues. The extraction was repeated one additional time. The supernatants obtained were pooled and labeled liver, kidney, and plasma extracts. These samples were concentrated and then subjected to TLC analysis. For calculation of extraction efficacy, the post‐extraction solids (PESs) from the tissues and plasma extracts were sampled in low potassium glass vials. PESs were solubilized with 3 M potassium hydroxide solution (approximately 1 ml), then bleached with 30% hydrogen peroxide solution, and finally mixed with 10 ml of Hionic‐Fluor to measure the radioactivity.

[1] = kidney, oral, with rifampicin (OATP inhibitor) 200 mg/kg p.o., Male, 2 h after [^14C]Epyrifenacil 1 mg/kg p.o. + Rifampicin 200 mg/kg p.o., read-out: Metabolite concentration, Kidney
[2] = kidney, oral, Female, 2 h after [^14C]Epyrifenacil 1 mg/kg p.o., read-out: Metabolite concentration, Kidney
[3] = kidney, oral, Male, 2 h after [^14C]Epyrifenacil 1 mg/kg p.o., read-out: Metabolite concentration, Kidney
[4] = liver, oral, Female, 2 h after [^14C]Epyrifenacil 1 mg/kg p.o., read-out: Metabolite concentration, Liver
[5] = liver, oral, Male, 2 h after [^14C]Epyrifenacil 1 mg/kg p.o., read-out: Metabolite concentration, Liver
[6] = plasma, oral, Female, 2 h after [^14C]Epyrifenacil 1 mg/kg p.o., read-out: Metabolite concentration, Plasma
[7] = plasma, oral, Male, 2 h after [^14C]Epyrifenacil 1 mg/kg p.o., pooled samples, read-out: Metabolite concentration, Plasma

## CNC(=O)Nc1cc(Oc2cccnc2OCC(=O)O)c(Cl)cc1F [M2]
[1]
  concentration at 2 h: 1 ng/g
[2]
  concentration at 2 h: 2 ng/g
[3]
  concentration at 2 h: 4 ng/g
[4]
  concentration at 2 h: 11 ng/g
[5]
  concentration at 2 h: 24 ng/g
plasma, oral, with rifampicin (OATP inhibitor) 200 mg/kg p.o., Female, 2 h after [^14C]Epyrifenacil 1 mg/kg p.o. + Rifampicin 200 mg/kg p.o., read-out: Metabolite concentration, Plasma
  concentration at 2 h: 16 ng/g
plasma, oral, with rifampicin (OATP inhibitor) 200 mg/kg p.o., Male, 2 h after [^14C]Epyrifenacil 1 mg/kg p.o. + Rifampicin 200 mg/kg p.o., read-out: Metabolite concentration, Plasma
  concentration at 2 h: 35 ng/g
[6]
  concentration at 2 h: 55 ng/g
[7]
  concentration at 2 h: 20 ng/g

## CN1C(=O)N(c2cc(Oc3cccnc3OCC(=O)O)c(Cl)cc2F)C(=O)CC1(O)C(F)(F)F (centres unmarked) [M4]
female, in vivo, 1 mg/kg, Female, 2 h after [^14C]Epyrifenacil 1 mg/kg p.o., read-out: Metabolite concentration, Kidney
  concentration at 2 h: 23 ng/g
female, in vivo, 1 mg/kg, Female, 2 h after [^14C]Epyrifenacil 1 mg/kg p.o., read-out: Metabolite concentration, Liver
  concentration at 2 h: 858 ng/g
female, in vivo, Female, 2 h after [^14C]Epyrifenacil 1 mg/kg p.o. + Digoxin 100 mg/kg i.p., read-out: Metabolite concentration, Kidney
  concentration at 2 h: 30 ng/g
female, in vivo, Female, 2 h after [^14C]Epyrifenacil 1 mg/kg p.o. + Digoxin 100 mg/kg i.p., read-out: Metabolite concentration, Liver
  concentration at 2 h: 553 ng/g
female, in vivo, Female, 2 h after [^14C]Epyrifenacil 1 mg/kg p.o. + Digoxin 200 mg/kg p.o., read-out: Metabolite concentration, Kidney
  concentration at 2 h: 7 ng/g
female, in vivo, Female, 2 h after [^14C]Epyrifenacil 1 mg/kg p.o. + Digoxin 200 mg/kg p.o., read-out: Metabolite concentration, Liver
  concentration at 2 h: 291 ng/g
female, in vivo, Female, 2 h after [^14C]Epyrifenacil 1 mg/kg p.o. + Rifampicin 200 mg/kg p.o., read-out: Metabolite concentration, Kidney
  concentration at 2 h: 15 ng/g
female, in vivo, Female, 2 h after [^14C]Epyrifenacil 1 mg/kg p.o. + Rifampicin 200 mg/kg p.o., read-out: Metabolite concentration, Liver
  concentration at 2 h: 129 ng/g
female, in vivo, Female, 2 h after [^14C]Epyrifenacil 1 mg/kg p.o. + Rifampicin 200 mg/kg p.o., read-out: Metabolite concentration, Plasma
  concentration at 2 h: 22 ng/g
male, in vivo, 1 mg/kg, Male, 2 h after [^14C]Epyrifenacil 1 mg/kg p.o., pooled samples, read-out: Metabolite concentration, Plasma
  concentration at 2 h: 3 ng/g
male, in vivo, 1 mg/kg, Male, 2 h after [^14C]Epyrifenacil 1 mg/kg p.o., read-out: Metabolite concentration, Kidney
  concentration at 2 h: 9 ng/g
male, in vivo, 1 mg/kg, Male, 2 h after [^14C]Epyrifenacil 1 mg/kg p.o., read-out: Metabolite concentration, Liver
  concentration at 2 h: 1030 ng/g
male, in vivo, Male, 2 h after [^14C]Epyrifenacil 1 mg/kg p.o. + Digoxin 100 mg/kg i.p., read-out: Metabolite concentration, Kidney
  concentration at 2 h: 14 ng/g
male, in vivo, Male, 2 h after [^14C]Epyrifenacil 1 mg/kg p.o. + Digoxin 100 mg/kg i.p., read-out: Metabolite concentration, Liver
  concentration at 2 h: 651 ng/g
male, in vivo, Male, 2 h after [^14C]Epyrifenacil 1 mg/kg p.o. + Digoxin 200 mg/kg p.o., read-out: Metabolite concentration, Kidney
  concentration at 2 h: 5 ng/g
male, in vivo, Male, 2 h after [^14C]Epyrifenacil 1 mg/kg p.o. + Digoxin 200 mg/kg p.o., read-out: Metabolite concentration, Liver
  concentration at 2 h: 157 ng/g
male, in vivo, Male, 2 h after [^14C]Epyrifenacil 1 mg/kg p.o. + Rifampicin 200 mg/kg p.o., read-out: Metabolite concentration, Kidney
  concentration at 2 h: 22 ng/g
male, in vivo, Male, 2 h after [^14C]Epyrifenacil 1 mg/kg p.o. + Rifampicin 200 mg/kg p.o., read-out: Metabolite concentration, Liver
  concentration at 2 h: 172 ng/g
male, in vivo, Male, 2 h after [^14C]Epyrifenacil 1 mg/kg p.o. + Rifampicin 200 mg/kg p.o., read-out: Metabolite concentration, Plasma
  concentration at 2 h: 4 ng/g

## Cn1c(C(F)(F)F)cc(=O)n(-c2cc(Oc3ccc[nH]c3=O)c(Cl)cc2F)c1=O [M6]
[1]
  concentration at 2 h: 1 ng/g
[2]
  concentration at 2 h: 4 ng/g
[3]
  concentration at 2 h: 8 ng/g
[4]
  concentration at 2 h: 6 ng/g
[5]
  concentration at 2 h: 12 ng/g
[6]
  concentration at 2 h: 15 ng/g
[7]
  concentration at 2 h: 3 ng/g
